From patent publication US8603975B2, “Cyclic peptide compounds” (priority 2007, dated 2013)
*1 amine or outer side, *2 acyl side, *3 side chain or, on linkers, in order; H or OH if unused. Where a SMILES comes first, the peptide text is derived from it. [ ]: non-standard residue; d: D form. The star is where a group is joined. X1 = C[C@H](COC(=O)N(C)c1ccccn1)C[C@@H](C(=O)[*:2])N(C)[*:1]; X2 = COCCN(CCOC)C(=O)OC[C@@H](C)C[C@@H](C(=O)[*:2])N(C)[*:1]; X4 = C[C@H](COC(=O)N(C)c1cccnc1)C[C@@H](C(=O)[*:2])N(C)[*:1]; X3 = C[C@H](COC(=O)N1CCN(C)CC1)C[C@@H](C(=O)[*:2])N(C)[*:1]; X6 = C[C@H](COC(=O)N1CCOCC1)C[C@@H](C(=O)[*:2])N(C)[*:1]; NMe(dihydroBmt) = CCCC[C@@H](C)[C@@H](O)[C@H](NC)C(=O)O; X7 = C[C@H](COC(=O)[*:3])C[C@@H](C(=O)[*:2])N(C)[*:1]; MeBmt = C/C=C/C[C@@H](C)[C@@H](O)[C@H](NC)C(=O)O; NMeL = CN[C@@H](CC(C)C)C(=O)O; X8 = CN(c1cnn(CCN2CCOCC2)c1)*; NMeV = CN[C@H](C(=O)O)C(C)C; Sar = CNCC(=O)O

target: HCV replicon; format: cell-based, hepatitis C virus; conditions: HCV replicon cells, D-MEM with 5% fetal bovine serum, luciferase activity after two more days of cultivation, 50% enzyme activity level to control (DMSO only)
Procedure: It is thought that the replication mechanism of the subgenomic HCV RNA in these cell lines is extremely similar to the replication of full length HCV RNA genome in hepatic cells infected with HCV.
The inhibitory activity of the test compounds against the replication of HCV replicon was evaluated by quantifying the activity of luciferase, a reporter gene product encoded in the replicon system reported by Yokota et al., EMBO J 4: 602-608 (2003). The enzyme assay was carried out according to the technical manual of the Steady-Glo(trade mark) luciferase assay system (Promega). The replicon assay was carried out with the modified method reported by Lohmann et al., Science 285: 110 (1999). The details are described in the following.
6×10^3 HCV replicon cells in D-MEM medium containing 5% fetal bovine serum were seeded in each well of a 96-well microtiter plate (Corning Inc.). After the cells were incubated at 37° C. for 16 hours in 5% CO2, the test compound was added.
After cultivation for two more days, the culture medium was removed and 25 μl of Glo Lysis buffer was added to each well and incubated for 5 minutes. Allowing lysis to occur, 25 μl of Steady-Glo(trade mark) assay reagent was added to each well. After incubation for 5 minutes, the luminescence was measured with a luminometer, Mithras LB940 (BERTHOLD TECHNOLOGIES GmbH & Co.KG) following the manufacturer's instructions.
The luciferase activities in replicon cells treated at each concentrations of the compound were employed for the calculation of EC50 value of the each compound, which gave the compound concentration indicating 50% enzyme activity level to the control (no drug group, containing only DMSO).

First: CCCC[C@@H](C)[C@@H](O)[C@H]1C(=O)N[C@@H]([C@@H](C)O)C(=O)N(C)CC(=O)N(C)[C@@H](CC(C)C)C(=O)N[C@@H](CC(C)C)C(=O)N(C)[C@@H](CC(C)C)C(=O)N[C@@H](C)C(=O)N[C@H](C)C(=O)N(C)[C@@H](C[C@H](C)COC(=O)N(C)c2ccccn2)C(=O)N[C@@H](CC(C)C)C(=O)N(C)[C@@H](C(C)C)C(=O)N1C [Ex 249] (cyclo([NMe(dihydroBmt)]T[Sar][NMeL]L[NMeL]A[dA][X1]L[NMeV]))
Second: C/C=C/C[C@@H](C)[C@@H](O)[C@H]1C(=O)N[C@@H]([C@@H](C)O)C(=O)N(C)CC(=O)N(C)[C@@H](CC(C)C)C(=O)N[C@@H](CC(C)C)C(=O)N(C)[C@@H](CC(C)C)C(=O)N[C@@H](C)C(=O)N[C@H](C)C(=O)N(C)[C@@H](C[C@H](C)COC(=O)N(C)c2cccnc2)C(=O)N[C@@H](CC(C)C)C(=O)N(C)[C@@H](C(C)C)C(=O)N1C [Ex 39] (cyclo([MeBmt]T[Sar][NMeL]L[NMeL]A[dA][X4]L[NMeV]))
The “HCV replicon replication inhibitory activity: EC50” value of the first is 1.7-fold lower: 0.07 µg/mL for the first, 0.12 µg/mL for the second.

Compared with `C/C=C/C[C@@H](C)[C@@H](O)[C@H]1C(=O)N[C@@H]([C@@H](C)O)C(=O)N(C)[C@H](C)C(=O)N(C)[C@@H](CC(C)C)C(=O)N[C@@H](CC(C)C)C(=O)N(C)[C@@H](CC(C)C)C(=O)N[C@@H](C)C(=O)N[C@H](C)C(=O)N(C)[C@@H](C[C@H](C)COC(=O)N(C)CC(F)(F)F)C(=O)N[C@@H](CC(C)C)C(=O)N(C)[C@@H](C(C)C)C(=O)N1C` [Ex 145], `C/C=C/C[C@@H](C)[C@@H](O)[C@H]1C(=O)N[C@@H]([C@@H](C)O)C(=O)N(C)[C@H](COC)C(=O)N(C)[C@@H](CC(C)C)C(=O)N[C@@H](CC(C)C)C(=O)N(C)[C@@H](CC(C)C)C(=O)N[C@@H](C)C(=O)N[C@H](C)C(=O)N(C)[C@@H](C[C@H](C)COC(=O)N(C)CCOC)C(=O)N[C@@H](CC(C)C)C(=O)N(C)[C@@H](C(C)C)C(=O)N1C` [Ex 84] is 2.4-fold higher in “HCV replicon replication inhibitory activity: EC50” value: 0.022 µg/mL for the first, 0.053 µg/mL for the second.

`C/C=C/C[C@@H](C)[C@@H](O)[C@H]1C(=O)N[C@@H]([C@@H](C)O)C(=O)N(C)CC(=O)N(C)[C@@H](CC(C)C)C(=O)N[C@@H](CC(C)C)C(=O)N(C)[C@@H](CC(C)C)C(=O)N[C@@H](C)C(=O)N[C@H](C)C(=O)N(C)[C@@H](C[C@H](C)COC(=O)N2CCN(C)CC2)C(=O)N[C@@H](CC(C)C)C(=O)N(C)[C@@H](C(C)C)C(=O)N1C` [Ex 8] (cyclo([MeBmt]T[Sar][NMeL]L[NMeL]A[dA][X3]L[NMeV])) and `C/C=C/C[C@@H](C)[C@@H](O)[C@H]1C(=O)N[C@@H]([C@@H](C)O)C(=O)N(C)CC(=O)N(C)[C@@H](CC(C)C)C(=O)N[C@@H](CC(C)C)C(=O)N(C)[C@@H](CC(C)C)C(=O)N[C@@H](C)C(=O)N[C@H](C)C(=O)N(C)[C@@H](C[C@H](C)COC(=O)N2CCOCC2)C(=O)N[C@@H](CC(C)C)C(=O)N(C)[C@@H](C(C)C)C(=O)N1C` [Ex 1] (cyclo([MeBmt]T[Sar][NMeL]L[NMeL]A[dA][X6]L[NMeV])) are within 1.5-fold of each other in “HCV replicon replication inhibitory activity: EC50” value: 0.16 µg/mL for the first, 0.15 µg/mL for the second.

First: C/C=C/C[C@@H](C)[C@@H](O)[C@H]1C(=O)N[C@@H]([C@@H](C)O)C(=O)N(C)CC(=O)N(C)[C@@H](CC(C)C)C(=O)N[C@@H](CC(C)C)C(=O)N(C)[C@@H](CC(C)C)C(=O)N[C@@H](C)C(=O)N[C@H](C)C(=O)N(C)[C@@H](C[C@H](C)COC(=O)N(CCOC)CCOC)C(=O)N[C@@H](CC(C)C)C(=O)N(C)[C@@H](C(C)C)C(=O)N1C [Ex 10] (cyclo([MeBmt]T[Sar][NMeL]L[NMeL]A[dA][X2]L[NMeV]))
Second: C/C=C/C[C@@H](C)[C@@H](O)[C@H]1C(=O)N[C@@H]([C@@H](C)O)C(=O)N(C)[C@H](COC)C(=O)N(C)[C@@H](CC(C)C)C(=O)N[C@@H](CC(C)C)C(=O)N(C)[C@@H](CC(C)C)C(=O)N[C@@H](C)C(=O)N[C@H](C)C(=O)N(C)[C@@H](C[C@H](C)COC(=O)N2CC[C@H](OC)C2)C(=O)N[C@@H](CC(C)C)C(=O)N(C)[C@@H](C(C)C)C(=O)N1C [Ex 151]
The “HCV replicon replication inhibitory activity: EC50” value of the first is 5.1-fold higher: 0.18 µg/mL for the first, 0.035 µg/mL for the second.

Compared with `C/C=C/C[C@@H](C)[C@@H](O)[C@H]1C(=O)N[C@@H]([C@@H](C)O)C(=O)N(C)CC(=O)N(C)[C@@H](CC(C)C)C(=O)N[C@@H](CC(C)C)C(=O)N(C)[C@@H](CC(C)C)C(=O)N[C@@H](C)C(=O)N[C@H](C)C(=O)N(C)[C@@H](C[C@H](C)COC(=O)N(C)c2cnn(CCN3CCOCC3)c2)C(=O)N[C@@H](CC(C)C)C(=O)N(C)[C@@H](C(C)C)C(=O)N1C` [Ex 36] (cyclo([MeBmt]T[Sar][NMeL]L[NMeL]A[dA][X7](X8)L[NMeV])), `C/C=C/C[C@@H](C)[C@@H](O)[C@H]1C(=O)N[C@@H]([C@@H](C)O)C(=O)N(C)[C@H](C)C(=O)N(C)[C@@H](CC(C)C)C(=O)N[C@@H](CC(C)C)C(=O)N(C)[C@@H](CC(C)C)C(=O)N[C@@H](C)C(=O)N[C@H](C)C(=O)N(C)[C@@H](C[C@H](C)COC(=O)N2CCSCC2)C(=O)N[C@@H](CC(C)C)C(=O)N(C)[C@@H](C(C)C)C(=O)N1C` [Ex 130] is 2.9-fold lower in “HCV replicon replication inhibitory activity: EC50” value: 0.09 µg/mL for the first, 0.031 µg/mL for the second.

For `C/C=C/C[C@@H](C)[C@@H](O)[C@H]1C(=O)N[C@@H]([C@@H](C)O)C(=O)N(C)[C@H](C)C(=O)N(C)[C@@H](CC(C)C)C(=O)N[C@@H](CC(C)C)C(=O)N(C)[C@@H](CC(C)C)C(=O)N[C@@H](C)C(=O)N[C@H](C)C(=O)N(C)[C@@H](C[C@H](C)COC(=O)N2CCC(C)(OCC)CC2)C(=O)N[C@@H](CC(C)C)C(=O)N(C)[C@@H](C(C)C)C(=O)N1C` [Ex 124], the “HCV replicon replication inhibitory activity: EC50” value was 0.056 µg/mL.
